The text below walks through data of patent US20060122101A1, “Drug for preventing, regulating or treating adhesion” (priority 2003, published 2006).

The target in data set [1] is T1, chymase (Homo sapiens, UniProt P23946).
T1 construct: the chymase activity in the blood vessel tissue of the living body; from tissue; host or cells: blood vessel tissue of the living body
T1 sequence (P23946 22-247): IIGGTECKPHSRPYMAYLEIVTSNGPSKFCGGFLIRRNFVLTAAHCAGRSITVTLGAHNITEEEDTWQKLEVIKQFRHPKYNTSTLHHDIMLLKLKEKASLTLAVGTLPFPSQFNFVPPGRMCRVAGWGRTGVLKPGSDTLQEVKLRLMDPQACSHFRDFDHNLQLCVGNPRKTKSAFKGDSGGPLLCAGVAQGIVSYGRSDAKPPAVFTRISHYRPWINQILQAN
The data set can be described thus: Chymase activity in blood vessel tissue of the living body after use during operation. It counts as in vivo. To be noted: 10 μM during the operation; for 4 weeks. As for the experimental part:
The medicament of the present invention allows at least one protease inhibitor to be administered in a substantially sufficient amount to permit epithelialization in the site of adhesion formation. […] The effective administration amount of chymase inhibitor (Suc-Val-Pro-L-Phe^P(OPh)2) can be selected in the range of 0.0001 to 100 mg per 1 kg of adult body weight, per one day. For example, it can be administered intravenously by an amount selected in the range from 0.0001 to 100 mg, preferably from 0.01 to 1 mg, and orally by an amount selected in the range from 0.1 to 100 mg, preferably from 0.1 to 10 mg. Furthermore, it can be intravenously applied by an amount in the range from 0.0001 to 1000 mg, preferably from 0.1 to 100 mg.

The conditions of data set [2]: cited from earlier work.
The test system of data set [3] is Cardiac muscle adhesion models. Briefly: Prevention of adhesion by oral administration in hamster cardiac muscle adhesion model. The class given is in vivo, Syrian hamsters. As to conditions: 10 mg/kg orally once a day. As for the experimental part:
Syrian hamsters (SLC Co., Ltd.), 6 weeks of age (weighing 85-90 g), were subject to abdominal middle incision to scrape their hearts. Cardiac muscle adhesion models were prepared. Suc-Val-Pro-Phe^P(OPh)2 (10 mg/kg) (eight cases) or placebo (eight cases) was forcibly orally administered using a canal once a day from the 3rd day before the model preparation to the 14th day after the model preparation. The adhesion levels at the 14th day after the model preparation were compared to study. Adhesion scores are as follows. Student-t test was used to test a significant difference in adhesion core.
Adhesion level 0: A heart is easily taken out, and the heart exists independently from the circumference, as is similar to a normal heart.
Adhesion level 1: A heart is observed to adhere to the circumferential tissue at one site by a thin film, but the adhesion site can be simply freed to release the heart.
Adhesion level 2: A heart is observed to adhere to the circumferential tissue at a few sites, but the adhesion sites can be freed by a traction force to release the heart.
Adhesion level 3: A heart is firmly adhered, but is distinguishable from, to the circumferential tissue at several sites, and it is hard to release the heart without a strong traction force.
Adhesion level 4: Excessive cell growth and fibrosis occur around a heart, and the heart is observed to adhere to the circumferential tissue. The heart is so firmly adhered to the circumferential tissue that the heart is difficult to release even by a peeling traction force.

Data set [4] relates to chymotrypsin and chymotrypsin-like enzymes. To be noted: cited from earlier work.
The target in data set [5] is human leukocyte elastase (Homo sapiens, UniProt P08246). As to conditions: cited from earlier work.
Where [6] appears, read: 3rd day before to 14th day after model preparation, eight cases.

Sequence of human leukocyte elastase (P08246 30-267): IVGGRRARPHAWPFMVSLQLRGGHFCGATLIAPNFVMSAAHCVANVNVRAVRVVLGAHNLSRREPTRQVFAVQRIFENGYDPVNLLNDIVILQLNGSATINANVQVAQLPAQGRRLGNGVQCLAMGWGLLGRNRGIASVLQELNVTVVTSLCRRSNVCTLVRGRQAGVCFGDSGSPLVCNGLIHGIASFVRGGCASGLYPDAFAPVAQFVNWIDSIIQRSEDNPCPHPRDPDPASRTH

As to `CC(C)C(NC(=O)CCC(=O)O)C(=O)N1CCCC1C(=O)NC(Cc1ccccc1)P(=O)(Oc1ccccc1)Oc1ccccc1` [Suc-Val-Pro-L-Phe^P(OPh)2], in data set [1], the “suppression of chymase activity in the blood vessel tissue” value is given as “suppress significantly”. The “half-life in human blood plasma” value in data set [2] is “about 20 hours”.
In the case of Suc-Val-Pro-Phe^P(OPh)2, in data set [3] (setting [6]), the “cases ranked as adhesion level 0” value is 75%, the “cases ranked as adhesion level 2” value is recorded as 12.5% and the “cases ranked as adhesion level 4” value is reported as 12.5%. Further, the “adhesion level versus placebo group” value in data set [3] (14th day, Student-t test) is given as “fell down significantly in adhesion level”. In addition, the “half-life in human blood plasma” value in data set [2] was “about 20 hours”. For the same molecule, the “inhibitor potency for chymotrypsin and chymotrypsin-like enzymes” value in data set [4] is on record as “relatively potent inhibitor”.
Turning to Meo-Suc-Ala-Ala-Pro-Val^P(OPh)2, the “inhibitor potency with human leukocyte elastase” value in data set [5] is recorded as “relatively potent inhibitors”.
As to Boc-Val-Pro-Val^P(OPh)2, in data set [5], the “inhibitor potency with human leukocyte elastase” value is recorded as “relatively potent inhibitors”.
